The source of these data is patent US20090304692A1, “TRIAZINE COMPOUNDS AS PI3 KINASE AND MTOR INHIBITORS” (Wyeth, priority 2008, published 2009).

Where two headings read alike, the source gives them in different places.

One assay has as its target PI3K-α (Homo sapiens, UniProt P42336). The experiment in a line: PI3K-alpha fluorescence polarization assay. To be noted: read-out: IC50 PI3Kα. (Fluorescence polarisation rises when a labelled molecule tumbles more slowly, as on binding a larger partner.)
The target of the next assay is PI3K-γ (Homo sapiens, UniProt P48736). The experiment in a line: PI3K-gamma fluorescence polarization assay.
PI3K-γ, sequence (P48736 whole entry, species assumed): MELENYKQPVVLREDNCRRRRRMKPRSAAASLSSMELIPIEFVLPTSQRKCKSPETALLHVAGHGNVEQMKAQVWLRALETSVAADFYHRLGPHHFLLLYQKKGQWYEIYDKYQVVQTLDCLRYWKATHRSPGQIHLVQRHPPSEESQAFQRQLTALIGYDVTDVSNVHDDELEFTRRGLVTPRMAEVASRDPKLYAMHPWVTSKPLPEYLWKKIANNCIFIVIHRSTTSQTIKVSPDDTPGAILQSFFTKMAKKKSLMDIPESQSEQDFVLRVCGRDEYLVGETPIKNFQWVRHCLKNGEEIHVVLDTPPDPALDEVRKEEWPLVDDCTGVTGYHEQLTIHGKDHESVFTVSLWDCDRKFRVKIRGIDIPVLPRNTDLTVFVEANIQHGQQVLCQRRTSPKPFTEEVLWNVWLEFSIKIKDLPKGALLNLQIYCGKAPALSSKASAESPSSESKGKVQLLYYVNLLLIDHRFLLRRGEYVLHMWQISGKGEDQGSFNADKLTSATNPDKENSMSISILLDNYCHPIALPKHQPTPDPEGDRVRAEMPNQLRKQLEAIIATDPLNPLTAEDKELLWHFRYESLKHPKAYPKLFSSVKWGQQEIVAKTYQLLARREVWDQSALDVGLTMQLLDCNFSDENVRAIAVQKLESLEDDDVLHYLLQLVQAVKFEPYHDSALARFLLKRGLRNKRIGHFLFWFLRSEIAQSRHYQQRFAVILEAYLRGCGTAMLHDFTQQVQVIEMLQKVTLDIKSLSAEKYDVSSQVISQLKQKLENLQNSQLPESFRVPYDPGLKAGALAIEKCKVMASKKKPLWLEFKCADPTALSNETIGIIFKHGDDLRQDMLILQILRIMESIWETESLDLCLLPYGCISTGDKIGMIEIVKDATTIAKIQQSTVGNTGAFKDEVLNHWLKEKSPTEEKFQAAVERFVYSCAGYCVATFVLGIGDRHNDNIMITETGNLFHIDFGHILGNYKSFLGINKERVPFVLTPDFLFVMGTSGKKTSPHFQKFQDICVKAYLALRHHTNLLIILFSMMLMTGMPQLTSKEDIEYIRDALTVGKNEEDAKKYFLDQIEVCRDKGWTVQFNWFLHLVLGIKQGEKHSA

PI3K-α, sequence (P42336 whole entry, species assumed): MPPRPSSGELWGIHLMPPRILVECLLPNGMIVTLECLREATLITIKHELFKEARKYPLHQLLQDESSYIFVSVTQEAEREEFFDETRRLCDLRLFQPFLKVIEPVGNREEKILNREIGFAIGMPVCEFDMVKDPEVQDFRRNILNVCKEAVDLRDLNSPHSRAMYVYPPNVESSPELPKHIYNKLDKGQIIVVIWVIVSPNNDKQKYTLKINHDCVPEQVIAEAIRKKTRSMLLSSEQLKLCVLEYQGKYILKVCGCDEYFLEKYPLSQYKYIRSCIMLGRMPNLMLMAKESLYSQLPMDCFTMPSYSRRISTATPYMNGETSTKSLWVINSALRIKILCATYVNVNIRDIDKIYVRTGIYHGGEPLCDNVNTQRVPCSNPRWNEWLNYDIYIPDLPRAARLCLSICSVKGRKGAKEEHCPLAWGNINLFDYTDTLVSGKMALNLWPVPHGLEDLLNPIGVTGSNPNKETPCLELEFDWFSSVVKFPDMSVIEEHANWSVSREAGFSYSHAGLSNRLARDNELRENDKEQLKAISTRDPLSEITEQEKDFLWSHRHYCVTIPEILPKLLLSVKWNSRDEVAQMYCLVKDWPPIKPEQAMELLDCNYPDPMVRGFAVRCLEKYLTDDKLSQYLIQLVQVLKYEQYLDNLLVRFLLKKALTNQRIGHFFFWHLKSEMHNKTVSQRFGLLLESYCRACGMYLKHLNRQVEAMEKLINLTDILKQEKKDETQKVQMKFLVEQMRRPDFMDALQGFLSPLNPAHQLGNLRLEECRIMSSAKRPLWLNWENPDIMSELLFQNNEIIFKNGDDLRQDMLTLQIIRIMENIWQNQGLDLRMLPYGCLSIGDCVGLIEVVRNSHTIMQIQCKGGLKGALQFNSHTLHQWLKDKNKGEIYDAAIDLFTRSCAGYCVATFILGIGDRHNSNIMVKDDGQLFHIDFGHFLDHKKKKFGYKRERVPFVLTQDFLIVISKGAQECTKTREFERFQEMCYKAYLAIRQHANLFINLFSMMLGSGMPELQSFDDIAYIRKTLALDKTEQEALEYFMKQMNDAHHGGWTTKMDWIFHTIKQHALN
PI3K-α, sequence (P27986 whole entry partner, species assumed): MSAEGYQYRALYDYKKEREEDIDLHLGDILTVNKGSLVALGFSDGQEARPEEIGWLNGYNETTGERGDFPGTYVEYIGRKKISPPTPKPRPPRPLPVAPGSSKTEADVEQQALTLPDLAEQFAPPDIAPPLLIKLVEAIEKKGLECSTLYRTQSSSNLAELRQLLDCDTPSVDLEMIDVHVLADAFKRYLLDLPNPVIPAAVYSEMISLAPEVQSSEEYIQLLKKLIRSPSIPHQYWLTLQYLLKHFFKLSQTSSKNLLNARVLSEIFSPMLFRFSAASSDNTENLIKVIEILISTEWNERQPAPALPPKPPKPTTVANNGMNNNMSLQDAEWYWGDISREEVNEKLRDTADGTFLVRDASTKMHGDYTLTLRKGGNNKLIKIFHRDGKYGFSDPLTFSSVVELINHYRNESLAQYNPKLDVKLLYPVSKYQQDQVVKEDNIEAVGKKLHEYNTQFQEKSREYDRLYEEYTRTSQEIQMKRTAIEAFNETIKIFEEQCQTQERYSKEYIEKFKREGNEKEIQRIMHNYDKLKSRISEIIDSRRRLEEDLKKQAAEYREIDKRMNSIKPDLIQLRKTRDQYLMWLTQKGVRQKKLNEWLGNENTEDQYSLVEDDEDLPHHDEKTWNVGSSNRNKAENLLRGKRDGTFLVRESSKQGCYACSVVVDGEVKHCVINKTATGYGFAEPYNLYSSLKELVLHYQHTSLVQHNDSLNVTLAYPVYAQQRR

In general, IC50 refers to the concentration at which inhibition is half-maximal. `Cc1nc(-c2ccc(NC(=O)Nc3ccc(C(=O)NC4CCN(C)CC4)cc3)cc2)nc(N2CCOCC2)n1` [Example 164, 4-({[4-(4-methyl-6-morpholin-4-yl-1,3,5-triazin-2-yl)phenyl]carbamoyl}amino)-N-(1-methylpiperidin-4-yl)benzamide]: the half-maximal inhibitory concentration (IC50) is 378 nM at PI3K-α and 1380 nM at PI3K-γ (read-out: IC50 PI3Kγ). For `O=C(Nc1ccc(C(=O)N2CCC(N3CCCC3)CC2)cc1)Nc1ccc(-c2nc(N3CCOCC3)nc(N3C[C@@H]4C[C@H]3CO4)n2)cc1` [Example 210, 1-(4-{4-morpholin-4-yl-6-[(1S,4S)-2-oxa-5-azabicyclo[2.2.1]hept-5-yl]-1,3,5-triazin-2-yl}phenyl)-3-{4-[(4-pyrrolidin-1-ylpiperidin-1-yl)carbonyl]phenyl}urea] the same measures were 6 nM and 31 nM. For `O=C(Nc1ccc(CO)cc1)Nc1ccc(-c2nc(N3C4CCC3COC4)nc(N3C4CCC3COC4)n2)cc1` [Example 287, 1-[4-(4,6-di-3-oxa-8-azabicyclo[3.2.1]oct-8-yl-1,3,5-triazin-2-yl)phenyl]-3-[4-(hydroxymethyl)phenyl]urea], the IC50 at PI3K-γ (read-out: IC50 PI3Kγ) was 3300 nM. On the same count and under the same terms, in the case of `CNCc1ccc(NC(=O)Nc2ccc(-c3nc(N4C5CCC4COC5)nc(N4C5CCC4COC5)n3)cc2)cc1` [Example 288, 1-[4-(4,6-di-3-oxa-8-azabicyclo[3.2.1]oct-8-yl-1,3,5-triazin-2-yl)phenyl]-3-{4-[(methylamino)methyl]phenyl}urea] it was 2780 nM; in that of `CN(C)CCOc1ccc(NC(=O)Nc2ccc(-c3nc(N4C5CCC4COC5)nc(N4C5CCC4COC5)n3)cc2)cc1` [Example 289, 1-{4-[2-(dimethylamino)ethoxy]phenyl}-3-[4-(4,6-di-3-oxa-8-azabicyclo[3.2.1]oct-8-yl-1,3,5-triazin-2-yl)phenyl]urea], 3880 nM. `CN1CCN(c2ccc(NC(=O)Nc3ccc(-c4nc(N5C[C@@H]6C[C@H]5CO6)nc(N5C[C@@H]6C[C@H]5CO6)n4)cc3)cc2)CC1` [Example 312, 1-{4-[4,6-di-(1S,4S)-2-oxa-5-azabicyclo[2.2.1]hept-5-yl-1,3,5-triazin-2-yl]phenyl}-3-[4-(4-methylpiperazin-1-yl)phenyl]urea]: the IC50 was found to be 3440 nM at PI3K-α and 10000 nM on PI3K-γ (read-out: IC50 PI3Kγ). For `O=C(Nc1ccc(OCCO)cc1)Nc1ccc(-c2nc(N3C4CCC3COC4)nc(N3C4CCC3COC4)n2)cc1` [Example 372, 1-(4-(4,6-di(3-oxa-8-azabicyclo[3.2.1]octan-8-yl)-1,3,5-triazin-2-yl)phenyl)-3-(4-(2-hydroxyethoxy)phenyl)urea], the IC50 on PI3K-γ (read-out: IC50 PI3Kγ) came out at 7240 nM. Same read-out and setting: the result for `CC(C)Nc1nc(-c2ccc(NC(=O)Nc3ccc(N4CCN(C)CC4)cc3)cc2)nc(N2C3CCC2COC3)n1` [Example 378, 1-(4-(4-(3-oxa-8-azabicyclo[3.2.1]octan-8-yl)-6-(isopropylamino)-1,3,5-triazin-2-yl)phenyl)-3-(4-(4-methylpiperazin-1-yl)phenyl)urea] reads 5380 nM; that for `CC(C)N(C)c1nc(-c2ccc(NC(=O)Nc3ccc(N4CCN(C)CC4)cc3)cc2)nc(N2C3CCC2COC3)n1` [Example 389, 1-(4-(4-(3-oxa-8-azabicyclo[3.2.1]octan-8-yl)-6-(isopropyl(methyl)amino)-1,3,5-triazin-2-yl)phenyl)-3-(4-(4-methylpiperazin-1-yl)phenyl)urea], 5660 nM. Still for that read-out and setting: the result for `CN1CCN(c2ccc(NC(=O)Nc3ccc(-c4nc(N5CCSCC5)nc(N5C6CCC5COC6)n4)cc3)cc2)CC1` [Example 394, 1-(4-(4-(3-oxa-8-azabicyclo[3.2.1]octan-8-yl)-6-thiomorpholino-1,3,5-triazin-2-yl)phenyl)-3-(4-(4-methylpiperazin-1-yl)phenyl)urea] reads 3230 nM; that for `CN1CCN(c2ccc(NC(=O)Nc3ccc(-c4nc(C5=CCOCC5)nc(N5C6CCC5COC6)n4)cc3)cc2)CC1` [Example 405, 1-(4-(4-(3-oxa-8-azabicyclo[3.2.1]octan-8-yl)-6-(3,6-dihydro-2H-pyran-4-yl)-1,3,5-triazin-2-yl)phenyl)-3-(4-(4-methylpiperazin-1-yl)phenyl)urea], 193 nM.

With `CN1CCN(c2ccc(NC(=O)Nc3ccc(-c4nc(C5CCOCC5)nc(N5C6CCC5COC6)n4)cc3)cc2)CC1` [Example 407, 1-(4-(4-(3-oxa-8-azabicyclo[3.2.1]octan-8-yl)-6-(tetrahydro-2H-pyran-4-yl)-1,3,5-triazin-2-yl)phenyl)-3-(4-(4-methylpiperazin-1-yl)phenyl)urea], the half-inhibitory concentration (IC50) at PI3K-γ (read-out: IC50 PI3Kγ) came out at 2260 nM. Still for that read-out and setting: the result for `C[C@@H]1COCCN1c1nc(-c2ccc(NC(=O)Nc3ccc(OCCN(C)C)cc3)cc2)nc(N2C3CCC2COC3)n1` [Example 419, 1-(4-(4-(3-oxa-8-azabicyclo[3.2.1]octan-8-yl)-6-((R)-3-methylmorpholino)-1,3,5-triazin-2-yl)phenyl)-3-(4-(2-(dimethylamino)ethoxy)phenyl)urea] reads 4270 nM.

In the case of `C[C@@H]1COCCN1c1nc(-c2ccc(NC(=O)Nc3ccc(N4CCN(C)CC4)nc3)cc2)nc(C2CCOCC2)n1` [Example 433, (R)-1-(4-(4-(3-methylmorpholino)-6-(tetrahydro-2H-pyran-4-yl)-1,3,5-triazin-2-yl)phenyl)-3-(6-(4-methylpiperazin-1-yl)pyridin-3-yl)urea], the IC50 on PI3K-α came to 220 nM; at PI3K-γ (read-out: IC50 PI3Kγ) it was 1510 nM. `CCN1CCN(c2ccc(NC(=O)Nc3ccc(-c4nc(C5CCOCC5)nc(N5C6CCC5COC6)n4)cc3)cc2)CC1` [Example 434, 1-(4-(4-(3-oxa-8-azabicyclo[3.2.1]octan-8-yl)-6-(tetrahydro-2H-pyran-4-yl)-1,3,5-triazin-2-yl)phenyl)-3-(4-(4-ethylpiperazin-1-yl)phenyl)urea]: on PI3K-γ (read-out: IC50 PI3Kγ), the IC50 was 4740 nM. Same read-out and setting: the result for `CN(C)C1CCN(c2ccc(NC(=O)Nc3ccc(-c4nc(C5CCOCC5)nc(N5C6CCC5COC6)n4)cc3)cc2)CC1` [Example 437, 1-(4-(4-(3-oxa-8-azabicyclo[3.2.1]octan-8-yl)-6-(tetrahydro-2H-pyran-4-yl)-1,3,5-triazin-2-yl)phenyl)-3-(4-(4-(dimethylamino)piperidin-1-yl)phenyl)urea] reads 1610 nM. Still for that read-out and setting: in the case of `CN1CCN(C(=O)c2ccc(NC(=O)Nc3ccc(-c4nc(C5CCOCC5)nc(N5C6CCC5COC6)n4)cc3)cc2)CC1` [Example 438, 1-(4-(4-(3-oxa-8-azabicyclo[3.2.1]octan-8-yl)-6-(tetrahydro-2H-pyran-4-yl)-1,3,5-triazin-2-yl)phenyl)-3-(4-(4-methylpiperazine-1-carbonyl)phenyl)urea] it was 663 nM. Take `CCN1CCN(c2ccc(NC(=O)Nc3ccc(-c4nc(N5C6CCC5COC6)nc(N5CCOC[C@H]5C)n4)cc3)cc2)CC1` [Example 440, 1-(4-(4-(3-oxa-8-azabicyclo[3.2.1]octan-8-yl)-6-((R)-3-methylmorpholino)-1,3,5-triazin-2-yl)phenyl)-3-(4-(4-ethylpiperazin-1-yl)phenyl)urea]: the IC50 against PI3K-γ is greater than 10000 nM. Still for that read-out and setting: the result for `CC(C)N1CCN(c2ccc(NC(=O)Nc3ccc(-c4nc(N5C6CCC5COC6)nc(N5CCOC[C@H]5C)n4)cc3)cc2)CC1` [Example 441, 1-(4-(4-(3-oxa-8-azabicyclo[3.2.1]octan-8-yl)-6-((R)-3-methylmorpholino)-1,3,5-triazin-2-yl)phenyl)-3-(4-(4-isopropylpiperazin-1-yl)phenyl)urea] reads greater than 10000 nM. Regarding `C[C@@H]1COCCN1c1nc(-c2ccc(NC(=O)Nc3ccc(C(=O)N4CCN(C)CC4)cc3)cc2)nc(N2C3CCC2COC3)n1` [Example 444, 1-(4-(4-(3-oxa-8-azabicyclo[3.2.1]octan-8-yl)-6-((R)-3-methylmorpholino)-1,3,5-triazin-2-yl)phenyl)-3-(4-(4-methylpiperazine-1-carbonyl)phenyl)urea], the IC50 at PI3K-γ (read-out: IC50 PI3Kγ) amounted to 1100 nM.

Take `CC(C)N1CCN(C(=O)c2ccc(NC(=O)Nc3ccc(-c4nc(N5C6CCC5COC6)nc(N5CCOC[C@H]5C)n4)cc3)cc2)CC1` [Example 445, 1-(4-(4-(3-oxa-8-azabicyclo[3.2.1]octan-8-yl)-6-((R)-3-methylmorpholino)-1,3,5-triazin-2-yl)phenyl)-3-(4-(4-isopropylpiperazine-1-carbonyl)phenyl)urea]: the IC50 at PI3K-γ (read-out: IC50 PI3Kγ) came out at 1000 nM. With `CN(C)[C@H]1CCN(C(=O)c2ccc(NC(=O)Nc3ccc(-c4nc(N5CCOCC5)nc(N5C6CCC5COC6)n4)cc3)cc2)C1` [Example 516, 1-(4-{[(3S)-3-(dimethylamino)pyrrolidin-1-yl]carbonyl}phenyl)-3-{4-[4-morpholin-4-yl-6-(3-oxa-8-azabicyclo[3.2.1]oct-8-yl)-1,3,5-triazin-2-yl]phenyl}urea], the IC50 on PI3K-α was 2.1 nM; at PI3K-α (listed as 824) it was 2 nM; at PI3K-α (listed as 827) it was 2.15 nM; at PI3K-γ (read-out: IC50 PI3Kγ), 17 nM. Consider `Cc1ccc(-c2nc(-c3ccc(NC(=O)Nc4cccc(C(=O)O)c4)cc3)nc(N3CCOCC3)n2)cc1` [Example 577, 3-[({4-[4-(4-methylphenyl)-6-morpholin-4-yl-1,3,5-triazin-2-yl]phenyl}carbamoyl)amino]benzoic acid], for which the half-inhibitory concentration (IC50) came out at 63 nM on PI3K-α and 104 nM at PI3K-γ (read-out: IC50 PI3Kγ). In the case of `CC(C)N1CCN(C(=O)c2ccc(NC(=O)Nc3ccc(-c4nc(N5C6CCC5COC6)nc(N5CCOC[C@@H]5C)n4)cc3)cc2)CC1` [Example 830, 1-(4-{4-[(3S)-3-methylmorpholin-4-yl]-6-(3-oxa-8-azabicyclo[3.2.1]oct-8-yl)-1,3,5-triazin-2-yl}phenyl)-3-(4-{[4-(propan-2-yl)piperazin-1-yl]carbonyl}phenyl)urea], the concentration for half-maximal inhibition (IC50) on PI3K-γ (read-out: IC50 PI3Kγ) came out at 70.5 nM. In the case of `C[C@H]1COCCN1c1nc(-c2ccc(NC(=O)Nc3ccc(C(=O)N4CCN(C)CC4)cc3)cc2)nc(N2C3CCC2COC3)n1` [Example 835, 1-(4-{4-[(3S)-3-methylmorpholin-4-yl]-6-(3-oxa-8-azabicyclo[3.2.1]oct-8-yl)-1,3,5-triazin-2-yl}phenyl)-3-{4-[(4-methylpiperazin-1-yl)carbonyl]phenyl}urea], the half-maximal inhibitory concentration (IC50) at PI3K-γ (read-out: IC50 PI3Kγ) was found to be 66 nM.
